The source of these data is US20230227484A1, “PYRIMIDINE COMPOUND AS AXL INHIBITOR” (NANJING CHIA TAI TIANQING PHARMACEUTICAL CO., LTD., priority 2020, published 2023).

In data set [1] the test system is MV-4-11 (human myeloid monocytic leukemia cell line). Put plainly: Proliferation inhibition activity of compounds to MV-4-11 cells (CellTiter-Glo). It is filed as cell-based. The following applies: MV4-11 cells, 72 h dosing. The gist of the method: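 MV-4-11 cells, plated 24 h earlier, were exposed 72 h to compounds in 10-point 3-fold dilutions (0.5% DMSO final). Viability read by CellTiter-Glo luminescence; inhibition normalized to blank and untreated controls, IC50 from variable-slope log(inhibitor)-response fit.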

Data set [2] deals with human acute monocytic leukemia cell MV-4-11 xenograft tumor. Description: In-vivo efficacy of compound for MV4-11 xenograft tumor model of nude mouse. The following applies: MV4-11, po, intragastric 5 mg/kg/d, once a day, end of experiment, MV-4-11 xenograft nude mice; for response vs control in vivo at 5 mg/kg/day: read-out: Relative tumor proliferation rate (% T/C); for inhibition in vivo at 5 mg/kg/day: read-out: Tumor growth inhibition rate (TGI %). On the procedure: Inhibitory effects of a compound and a positive drug on the in-vivo tumor growth of a xenograft tumor model of a nude mouse on human acute monocytic leukemia cell MV-4-11 are tested.
MV-4-11 cells in a logarithmic growth phase are harvested, resuspended after cell counting, and adjusted in cell concentration to 7.0×10^7 cells/mL. The resuspended solution is injected into the right armpit of the nude mice subcutaneously. Each animal is inoculated with 200 μL (14×10^6 cells) of the suspended solution to establish a MV-4-11 xenograft tumor model. Afer the tumor volume reaches 100-300 mm^3, tumor-bearing mice in good health and similar tumor volume are selected.
The compound and the positive drug are vortexed with a suitable solvent and then ultrasonicated to completely dissolve the compound. Then, an appropriate volume of citric acid buffer is slowly added, and the mixed solution is vortexed to make the solution mixed uniformly to obtain administrative formulations having concentrations of 0.1, 0.5, and 1 mg-mL^−1.
Solvent control group: PEG400 & citric acid buffer (20:80, v:v).
The modeled mice are randomly divided into groups (n=6), and administrated with the relevant compounds and positive drugs on the day of grouping. After 21 days or after the tumor volume of the solvent control group reaches 2000 mm^3, the experiment is terminated (whichever reaches the index first), and the administration volume is 10 mL-kg^−1. Both the compound and the positive drug are administered by gavage, once a day. After the experiment starts, the tumor diameter and animal body weight are measured twice a week, and the tumor volume is calculated.
The tumor volume(TV) calculation formula is: tumor volume(mm^3)=l×w^2/2,
The calculation formula of relative tumor volume(RTV) is: RTV=TVt/TVinitial
The calculation formula of relative tumor proliferation rate (% T/C) is: % T/C=100%×(RTVT/RTVC)

Data set [3] in a line: Pharmacokinetic study of compounds on ICR mice. The data set is classed as in vivo. The following applies: mouse, po, male ICR mice, plasma; for AUC(0-t): 10 mg/kg-kg^1 by gavage, read-out: AUC0-24. On the procedure:
Each compound is prepared with DMSO into a 10 mg/mL stock solution.
Preparation of mixed solvent: Tween 80: PEG400: Water=1:9:90 (v/v/v)
450 μl of the compound DMSO stock solution with a concentration of 10 mg/nmL is accurately sucked into a glass bottle, and added with an appropriate volume of DMSO and mixed solvent, wherein a ratio of the solvent in the final formulation is DMSO: mixed solvent (v/v)=10:90. The mixed solution is vortexed (or ultrasonically treated), and dispersed uniformly to obtain 4.5 mL. administration test solutions with a concentration of 1 mg/nL, respectively.
Male 6-10 week old ICR mice (sourced from: Beijing Vital River Laboratory Animal Technology Co., Ltd.) are taken, 6 mice in each group. The mice are fasted overnight and fed 4 h after the administration. On the day of the experiment, the mice are administrated with 10 mg-kg^1 of compound test solution by gavage. After administration, about 100 μL of blood is harvested from the orbits of the mice at 0 min, 5 mmn, 15 mmn, 30 min, 14 h 2 h, 4 h, 8 h, and 24 h, and placed in EDTA-K2 anticoagulant tubes. The whole blood sample is centrifuged at 1500 to 1600 g for 10 mm, and the plasma obtained by separation is stored in a refrigerator at −40 to −20° C. for biological sample analysis. The blood drug concentration is determined by an LC-MS/MS method.
A non-compartmental model in Pharsight Phoenix 7.0 is used to calculate pharmacokinetic parameters. The specific results are shown in 5 the table below.

The subject of data set [4] is human acute monocytic leukemia cell MV-4-11 xenograft tumor. Description: In-vivo efficacy of compound for MV4-11 xenograft tumor model of nude mouse. The following applies: MV4-11, po.
For data set [5], the target named is T1, AXL kinase (Homo sapiens, UniProt P30530).
T1 construct: purchased Carna 08-107
T1 sequence (P30530 473-894 limits assumed): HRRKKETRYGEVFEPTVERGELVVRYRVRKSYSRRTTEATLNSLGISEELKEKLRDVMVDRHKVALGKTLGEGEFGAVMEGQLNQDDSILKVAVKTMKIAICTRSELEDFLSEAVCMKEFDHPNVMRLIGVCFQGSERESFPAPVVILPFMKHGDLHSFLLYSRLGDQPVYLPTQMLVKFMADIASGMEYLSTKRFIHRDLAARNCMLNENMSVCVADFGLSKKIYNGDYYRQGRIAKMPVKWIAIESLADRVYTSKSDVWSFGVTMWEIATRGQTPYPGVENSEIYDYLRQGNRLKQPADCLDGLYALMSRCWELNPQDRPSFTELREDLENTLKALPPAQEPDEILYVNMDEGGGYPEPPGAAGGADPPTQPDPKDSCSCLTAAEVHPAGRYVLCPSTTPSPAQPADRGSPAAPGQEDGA
Put plainly: Inhibitory activity of compound against AXL kinase (HTRF KinEASE). The data set is classed as biochemical. The following applies: AXL enzyme (Carna, 08-107), ATP 15 μM; "<" means below detection limit of the test. In a few lines: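 AXL enzyme (final 0.016 ng/uL) was preincubated with compound (8 concentrations from 1 μM, ½ log steps) for 15 min at room temperature, then reacted with TK Substrate 3-biotin (final 1) and ATP (final 15 μM) for 45 min at 25° C. Phosphorylation was read by HTRF (TK antibody-cryptate, streptavidin-XL665, 1 h); IC50 from variable-slope dose-response fit.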

On to `CN1CCN(Cc2ccc(Nc3ncc(Cl)c(Nc4ccccc4S(=O)(=O)N(C)C)n3)cc2)CC1` [Positive drug 2 (TP0903), TP0903, reference compound], for which the IC50 in data set [1] is 12 nM. In data set [2], the response vs control in vivo at 5 mg/kg/day was found to be 42% and the inhibition in vivo at 5 mg/kg/day turned out to be 62%. Further, in data set [3] (10 mg-kg^1 by gavage), the concentration peaked (Cmax) at 26.8 ng/mL and the Tmax is 0.25 h. The AUC(0-t) in data set [3] stood at 52.2 ng·h/mL.

`Nc1nc(Nc2ccc3c(c2)CC[C@@H](N2CCCC2)CC3)nn1-c1cc2c(nn1)-c1ccccc1CCC2` [Positive drug 1 (BGB324), BGB324] registered an IC50 in data set [1] of 208 nM. In addition, the inhibition in vivo at 20 mg/kg/day in data set [4] (intragastric 20 mg/kg/d, once a day, end of experiment, MV-4-11 xenograft nude mice, read-out: Tumor growth inhibition rate (TGI %)) stood at 32%. Also, in data set [4] (read-out: Relative tumor proliferation rate (% T/C)), the response vs control in vivo at 20 mg/kg/day came to 71%.

For `Clc1cnc(Nc2ccc3c(c2)CC[C@@H](N2CCCC2)CC3)nc1Nc1ccccc1-c1ncc[nH]1` [Example 18, (S)—N^4-(2-(1H-imidazol-2-yl)phenyl)-5-chloro-N^2-(7-(pyrrolidin-1-yl)-6,7,8,9-tetrahydro-5H-benzo[7]annulen-2-yl)pyrimidine-2,4-diamine], 0.19 nM corresponded to half-maximal inhibition in data set [5] (IC50). For the same molecule, in data set [2], the response vs control in vivo at 5 mg/kg/day was 37% and the inhibition in vivo at 5 mg/kg/day stood at 71%. In data set [3] (10 mg-kg^1 by gavage), the Cmax turned out to be 249 ng/mL, the time to peak (Tmax) was found to be 2 h and the half-life was 3.03 h. Also, in data set [3], the AUC(0-t) came to 2300 ng·h/mL.

Turning to `CN1Cc2cccc(Nc3nc(Nc4ccc5c(c4)CC[C@@H](N4CCCC4)CC5)ncc3Cl)c2C1=O` [Example 28, (S)-7-((5-chloro-2-(((7-(pyrrolidin-1-yl)-6,7,8,9-tetrahydro-5H-benzo[7]annulen-2-yl)amino))pyrimidin-4-yl)amino)-2-methylisoindolin-1-one], in data set [5], half-maximal inhibition (IC50) required 0.31 nM. Also, in data set [2], the response vs control in vivo at 5 mg/kg/day stood at 5.9% and the inhibition in vivo at 5 mg/kg/day stood at 104%. In data set [3] (10 mg-kg^1 by gavage), the highest level (Cmax) was 226 ng/mL and the time to peak (Tmax) worked out at 8 h. Moreover, in data set [3], the AUC(0-t) is 3000 ng·h/mL.
